Experimental data: patent publication US20240116985A1, “STAPLED PEPTIDES AND METHODS THEREOF” (priority 2020, published 2024)

Tests used:
[1] = target: T1, full-length beta-Catenin (Uniprot ID P35222) (Homo sapiens, UniProt P35222); test: Fluorescence polarization IC50 (beta-catenin / 5FAM-TCF4 10-53 competition); assay type: binding; conditions: fluorescence polarization; read-out: beta-Catenin FP IC50
T1 construct: 10 nM full-length beta-Catenin (Uniprot ID P35222)
T1 sequence (P35222 1-781): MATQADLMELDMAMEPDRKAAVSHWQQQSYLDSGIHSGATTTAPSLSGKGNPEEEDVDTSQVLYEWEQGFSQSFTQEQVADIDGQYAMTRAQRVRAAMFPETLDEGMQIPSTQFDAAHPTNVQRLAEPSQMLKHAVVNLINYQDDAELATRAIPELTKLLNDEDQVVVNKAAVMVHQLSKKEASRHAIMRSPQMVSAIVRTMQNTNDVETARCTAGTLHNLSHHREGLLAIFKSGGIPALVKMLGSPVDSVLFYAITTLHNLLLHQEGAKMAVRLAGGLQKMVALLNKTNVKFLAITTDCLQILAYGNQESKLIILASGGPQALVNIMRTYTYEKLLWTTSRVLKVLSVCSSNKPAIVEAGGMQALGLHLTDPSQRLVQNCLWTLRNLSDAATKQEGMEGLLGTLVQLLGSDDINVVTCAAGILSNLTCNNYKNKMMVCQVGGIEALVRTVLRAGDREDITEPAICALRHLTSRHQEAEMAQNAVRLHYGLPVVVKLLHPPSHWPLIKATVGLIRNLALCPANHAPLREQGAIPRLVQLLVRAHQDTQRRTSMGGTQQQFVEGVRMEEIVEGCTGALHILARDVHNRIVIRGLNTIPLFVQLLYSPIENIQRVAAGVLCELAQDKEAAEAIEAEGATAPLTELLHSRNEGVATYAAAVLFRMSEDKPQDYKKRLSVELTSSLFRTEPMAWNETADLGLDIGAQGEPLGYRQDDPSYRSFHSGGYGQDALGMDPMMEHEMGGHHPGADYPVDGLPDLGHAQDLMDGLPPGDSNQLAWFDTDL

[2] = target: T2, beta-catenin/TCF4 engagement (Homo sapiens, UniProt P35222); test: Nano-BRET target engagement assay (B-cat-Halo & TCF4-Luc in HEK293 cells); assay type: cell-based; conditions: read-out: NanoBRET Abs IC50
T2 construct: expressed in transfected cells; host or cells: HEK293
T2 sequence (P35222 1-781): T1 sequence (P35222 1-781)

IC50 [1] | IC50 [2] | Compound
0.016 µM | 14.1 µM | CC(=O)N1CCC[C@]12CC=CCCCC1(CCCC=CCCCOC(=O)N3CC[C@@](C(=O)N[C@@H](Cc4ccsc4)C(=O)N[C@@H](Cc4csc5ccccc45)C(=O)N[C@@H](CCC(N)=O)C(N)=O)(C3)NC(=O)[C@H](CC(C)C)NC(=O)[C@H](Cc3ccccc3)NC(=O)[C@H](C)NC(=O)[C@H](C)NC(=O)[C@H](CCn3cc(CCC(=O)O)nn3)NC(=O)[C@H](CC(=O)O)NC1=O)NC(=O)[C@H](CC(C)(C)C)NC(=O)[C@H](CC(=O)O)NC2=O (stereo partly drawn) [I-2076, Ac-PL3-Asp-Npg-B5-Asp-[CH2CH2CO2H]TriAzDab-Ala-Ala-Phe-Leu-PyrS2-3Thi-BztA-Gln-NH2]
0.005 µM | 11.7 µM | CC(=O)N1CCC[C@]12CC=CCCCC1(CCCC=CCCCOC(=O)N3CC[C@@](C(=O)N[C@@H](Cc4ccsc4)C(=O)N[C@@H](Cc4csc5ccccc45)C(=O)N[C@@H](CCC(N)=O)C(N)=O)(C3)NC(=O)[C@H](CC(C)C)NC(=O)[C@H](Cc3ccccc3)NC(=O)[C@H](C)NC(=O)[C@H](C)NC(=O)[C@H](CCn3cc(CC(=O)O)nn3)NC(=O)[C@H](CC(=O)O)NC1=O)NC(=O)[C@H](CC(C)(C)C)NC(=O)[C@H](CC(=O)O)NC2=O (stereo partly drawn) [I-2078, Ac-PL3-Asp-Npg-B5-Asp-[CH2CO2H]TriAzDab-Ala-Ala-Phe-Leu-PyrS2-3Thi-BztA-Gln-NH2]
0.008 µM | 15.1 µM | CC(=O)N1CCC[C@]12CC=CCCCC1(CCCC=CCCCOC(=O)N3CC[C@@](C(=O)N[C@@H](Cc4ccsc4)C(=O)N[C@@H](Cc4csc5ccccc45)C(=O)N[C@@H](CCC(N)=O)C(N)=O)(C3)NC(=O)[C@H](CC(C)C)NC(=O)[C@H](Cc3ccccc3)NC(=O)[C@H](C)NC(=O)[C@H](C)NC(=O)[C@H](CCn3cc(C(C)(C)C(=O)O)nn3)NC(=O)[C@H](CC(=O)O)NC1=O)NC(=O)[C@H](CC(C)(C)C)NC(=O)[C@H](CC(=O)O)NC2=O (stereo partly drawn) [I-2079, Ac-PL3-Asp-Npg-B5-Asp-[CMe2CO2H]TriAzDab-Ala-Ala-Phe-Leu-PyrS2-3Thi-BztA-Gln-NH2]

The next lines start with the compound.

Compound | IC50 [1] | IC50 [2]
CC(=O)N1CCC[C@]12CC=CCCCC1(CCCC=CCCCOC(=O)N3CC[C@@](C(=O)N[C@@H](Cc4ccccc4Cl)C(=O)N[C@@H](Cc4csc5ccccc45)C(=O)N[C@@H](CCS(C)(=O)=O)C(N)=O)(C3)NC(=O)[C@H](CC(C)C)NC(=O)[C@H](Cc3ccccc3)NC(=O)[C@H](C)NC(=O)[C@H](C)NC(=O)[C@H](Cc3cccc(C(=O)O)c3)NC(=O)[C@H](CC(=O)O)NC1=O)NC(=O)[C@H](CC(C)(C)C)NC(=O)[C@H](CC(=O)O)NC2=O (stereo partly drawn) [I-2062, Ac-PL3-Asp-Npg-B5-Asp-3COOHF-Ala-Ala-Phe-Leu-PyrS2-2C1F-BztA-Met2O-NH2] | 0.041 µM | 3 µM
CC(=O)N1CCC[C@]12CC=CCCCC1(CCCC=CCCCOC(=O)N3CC[C@@](C(=O)N[C@@H](Cc4ccccc4C(F)(F)F)C(=O)N[C@@H](Cc4csc5ccccc45)C(=O)N[C@@H](CCS(C)(=O)=O)C(N)=O)(C3)NC(=O)[C@H](CC(C)C)NC(=O)[C@H](Cc3ccccc3)NC(=O)[C@H](C)NC(=O)[C@H](C)NC(=O)[C@H](Cc3cccc(C(=O)O)c3)NC(=O)[C@H](CC(=O)O)NC1=O)NC(=O)[C@H](CC(C)(C)C)NC(=O)[C@H](CC(=O)O)NC2=O (stereo partly drawn) [I-2063, Ac-PL3-Asp-Npg-B5-Asp-3COOHF-Ala-Ala-Phe-Leu-PyrS2-2F3MeF-BztA-Met2O-NH2] | 0.056 µM | 3.5 µM
CC(=O)N1CCC[C@]12CC=CCCCC1(CCCC=CCCCOC(=O)N3CC[C@@](C(=O)N[C@@H](Cc4ccsc4)C(=O)N[C@@H](Cc4csc5ccccc45)C(=O)N[C@@H](C)C(N)=O)(C3)NC(=O)[C@H](CC(C)C)NC(=O)[C@H](Cc3ccccc3)NC(=O)[C@H](C)NC(=O)[C@H](CCS(C)(=O)=O)NC(=O)[C@H](Cc3cccc(C(=O)O)c3)NC(=O)[C@H](CC(=O)O)NC1=O)NC(=O)[C@H](CC(C)(C)C)NC(=O)[C@H](CC(=O)O)NC2=O (stereo partly drawn) [I-2064, Ac-PL3-Asp-Npg-B5-Asp-3COOHF-Met2O-Ala-Phe-Leu-PyrS2-3Thi-BztA-Ala-NH2] | 0.016 µM | 11.8 µM
CC(=O)N1CCC[C@]12CC=CCCCC1(CCCC=CCCCOC(=O)N3CC[C@@](C(=O)N[C@@H](Cc4ccccc4)C(=O)N[C@@H](Cc4csc5ccccc45)C(=O)N[C@@H](C)C(N)=O)(C3)NC(=O)[C@H](CC(N)=O)NC(=O)[C@H](Cc3ccccc3)NC(=O)[C@H](C)NC(=O)[C@H](CCCCNC(C)C)NC(=O)[C@H](CCC(N)=O)NC(=O)[C@H](CC(=O)O)NC1=O)NC(=O)[C@H](CC1CCCCC1)NC(=O)[C@H](CC(N)=O)NC2=O (stereo partly drawn) [I-2065, Ac-PL3-Asn-Cha-B5-Asp-Gln-iPrLys-Ala-Phe-Asn-PyrS2-Phe-BztA-Ala-NH2] | 0.144 µM | > 20 µM
CC(=O)N1CCC[C@]12CC=CCCCC1(CCCC=CCCCOC(=O)N3CC[C@@](C(=O)N[C@@H](Cc4ccccc4)C(=O)N[C@@H](Cc4csc5ccccc45)C(=O)N[C@@H](CCO)C(N)=O)(C3)NC(=O)[C@H](CC(N)=O)NC(=O)[C@H](Cc3ccccc3)NC(=O)[C@H](C)NC(=O)[C@H](CCC(N)=O)NC(=O)[C@H](CCC(N)=O)NC(=O)[C@H](CC(=O)O)NC1=O)NC(=O)[C@H](CC1CCCCC1)NC(=O)[C@H](CC(N)=O)NC2=O (stereo partly drawn) [I-2067, Ac-PL3-Asn-Cha-B5-Asp-Gln-Gln-Ala-Phe-Asn-PyrS2-Phe-BztA-Hse-NH2] | 0.18 µM | > 20 µM
CC(=O)N1CCC[C@]12CC=CCCCC1(CCCC=CCCCOC(=O)N3CC[C@@](C(=O)N[C@@H](Cc4ccccc4)C(=O)N[C@@H](Cc4csc5ccccc45)C(=O)N[C@@H](Cc4ccccc4)C(N)=O)(C3)NC(=O)[C@H](CC(N)=O)NC(=O)[C@H](Cc3ccccc3)NC(=O)[C@H](C)NC(=O)[C@H](CCCCNC(C)C)NC(=O)[C@H](CCC(N)=O)NC(=O)[C@H](CC(=O)O)NC1=O)NC(=O)[C@H](CC1CCCCC1)NC(=O)[C@H](CC(N)=O)NC2=O (stereo partly drawn) [I-2068, Ac-PL3-Asn-Cha-B5-Asp-Gln-iPrLys-Ala-Phe-Asn-PyrS2-Phe-BztA-Phe-NH2] | 0.338 µM | > 20 µM
CC(=O)N1CCC[C@]12CC=CCCCC1(CCCC=CCCCOC(=O)N3CC[C@@](C(=O)N[C@@H](Cc4ccccc4)C(=O)N[C@@H](Cc4csc5ccccc45)C(=O)N[C@@H](C)C(N)=O)(C3)NC(=O)[C@H](CC(N)=O)NC(=O)[C@H](Cc3ccccc3)NC(=O)[C@H](C)NC(=O)[C@H](Cc3c[nH]cn3)NC(=O)[C@H](CCC(N)=O)NC(=O)[C@H](CC(=O)O)NC1=O)NC(=O)[C@H](CC1CCCCC1)NC(=O)[C@H](CC(N)=O)NC2=O (stereo partly drawn) [I-2069, Ac-PL3-Asn-Cha-B5-Asp-Gln-His-Ala-Phe-Asn-PyrS2-Phe-BztA-Ala-NH2] | 0.256 µM | > 20 µM
CC(=O)N1CCC[C@]12CC=CCCCC1(CCCC=CCCCOC(=O)N3CC[C@@](C(=O)N[C@@H](Cc4ccccc4)C(=O)N[C@@H](Cc4csc5ccccc45)C(=O)N[C@@H](C)C(N)=O)(C3)NC(=O)[C@H](CC(N)=O)NC(=O)[C@H](Cc3ccccc3)NC(=O)[C@H](C)NC(=O)[C@H](CCC(N)=O)NC(=O)[C@H](CCC(N)=O)NC(=O)[C@H](CC(=O)O)NC1=O)NC(=O)[C@H](CC1CCCCC1)NC(=O)[C@H](CC(N)=O)NC2=O (stereo partly drawn) [I-2070, Ac-PL3-Asn-Cha-B5-Asp-Gln-Gln-Ala-Phe-Asn-PyrS2-Phe-BztA-Ala-NH2] | 0.19 µM | > 20 µM
